Test system: ATF4 translation
Assay: ATF4 cell based assay (ATF4 reporter assay, NanoLuc luciferase fused to 5'-UTR of ATF4)
Conditions: SH-SY5Y-ATF4-NanoLuc cells challenged with Thapsigargin for 14-18 hours; average of a set of two or more experimental runs; read-out: average ATF4 pathway inhibitory activity (IC50)
Excerpt: The ATF4 reporter assay measures the effect of Thapsigargin induced cellular stress on ATF4 expression. For this reporter assay, a stable cell line was created by transfecting SH-SY5Y cells with a plasmid containing the NanoLuc® luciferase gene fused to the 5′-UTR of ATF4, under the control of the CMV promoter. The ATF4 5′-UTR contains two open reading frames which mediate the cellular stress-dependent translation of the reporter gene. Clones stably expressing the reporter construct were isolated and selected based on the luminescence response to thapsigargin and inhibition of this signal by test compounds. Briefly, SH-SY5Y-ATF4-NanoLuc cells were challenged with Thapsigargin for 14-18 hours to determine the stress effect with or without test compounds. Cells were propagated in growth media consisting of 90% DMEM F12 (InVitrogen #11320-033), 10% Fetal Bovine Serum (Gibco #10438-026), 5 mM Glutamax (Gibco #35050-061), 5 mM Hopes, (Gibco #15630-080), and 0.5 mg/ml Geneticin (Gibco #10131-027). Cells were prepared for the assay by removing all media from cells, washing the plated cells with phosphate buffered saline, and detached by adding a solution comprised of 10% Tryple express solution (InVitrogen 12604-021) and 90% enzyme-free cell dissociation buffer HANKS base (Gibco 13150-016). The trypsin was deactivated by adding assay media comprised of 90% phenol-red free DMEM F12 (InVitrogen, 11039), 10% Fetal Bovine Serum (Gibco #10438-026), (5 mM Glutamax (Gibco #35050-061), mM Hopes, (Gibco #15630-080), and 0.5 mg/ml Geneticin (Gibco #10131-027). Suspended cells were spun down at 300 g for 5 min, the supernatant was removed and the cell pellet was suspended in warm media (30-37° C.) comprised as above at (1e6 cell/ml). Assay plates were prepared by adding 250 nL of compound stock solution in 100% DMSO to each well, followed by dispensing 20 microliters/well cell suspension to deliver 15-20 k cell/well. Cells were incubated for 1 hour at 37° C. Then, 5 μL of 1.5 μM or 1 μM of Thapsigargin (final concentration: 200-300 nM) was added to each well of cells. Assay plates containing cells were incubated for 14-18 hours at 37° C. The measurement of luciferase produced by the ATF4 constructs was measured as follows. Aliquots of the Nano-Glo reagent (Nano-Glo® Luciferase Assay Substrate, Promega, N113, Nano-Glo® Luciferase Assay Buffer, Promega, N112 (parts of Nano-Glo® Luciferase Assay System, N1150) were brought to room temperature, the substrate and buffer were mixed according to manufacturer's instructions. The cell plates were equilibrated to room temperature. 25microliters/well of the mixed Nano-Glo reagent were dispensed into assay wells and pulse spun to settle contents and the plate was sealed with film. The plates were incubated at room temperature for 1 hour before detecting luminescence on an Envision plate reader.

`O=C(COc1ccc(C2CC2)cc1)NC1CCN(CCCOc2ccc(Cl)cc2)CC1` [Example 56, N-(1-(3-(4-chlorophenoxy)propyl)piperidin-4-yl)-2-(4-cyclopropylphenoxy)acetamide] and `O=C(COc1ccc(Cl)cc1)NC1CCN(CCCOc2ccc(Cl)cc2)CC1` [Example 2, 2-(4-chlorophenoxy)-N-(1-(3-(4-chlorophenoxy)propyl)piperidin-4-yl)acetamide] cannot be ordered by IC50: > 1000 nM for the first, < 4000 nM for the second.

Going from `O=C(COc1ccc(Cl)cc1)NC1CCN(C(=O)CCCc2ccc(Cl)cc2)CC1` [Example 37, 2-(4-chlorophenoxy)-N-(1-(4-(4-chlorophenyl)butanoyl)piperidin-4-yl)acetamide] to `O=C(NCCc1ccc(Cl)cc1)C1CCN(C(=O)COc2ccc(Cl)cc2)CC1` [Example 24, N-(4-chlorophenethyl)-1-(2-(4-chlorophenoxy)acetyl)piperidine-4-carboxamide], the IC50 rises from 98.7 nM to 201 nM (2-fold). The first is the more potent here.

`O=C(COc1ccc(Cl)cc1)NC1CCN(CCCOc2ccc(Cl)nc2)CC1` [Example 17, 2-(4-chlorophenoxy)-N-(1-(3-((6-chloropyridin-3-yl)oxy)propyl)piperidin-4-yl)acetamide] and `O=C(COc1ccc(Cl)nc1)NC1CCN(CCCOc2ccc(Cl)cc2)CC1` [Example 43, N-(1-(3-(4-chlorophenoxy)propyl)piperidin-4-yl)-2-((6-chloropyridin-3-yl)oxy)acetamide] are within 1.5-fold of each other in IC50: 76.8 nM for the first, 58.4 nM for the second.

`O=C(NCCOc1ccc(Cl)cc1)C1CCN(CCOc2ccc(Cl)cc2)CC1` [Example 39, N,1-bis(2-(4-chlorophenoxy)ethyl)piperidine-4-carboxamide] and `O=C(NCCOc1ccc(Cl)cc1)C1CCN(CCCOc2ccc(Cl)cc2)CC1` [Example 40, N-(2-(4-chlorophenoxy)ethyl)-1-(3-(4-chlorophenoxy)propyl)piperidine-4-carboxamide] cannot be ordered by IC50: > 1000 nM for the first, > 1000 nM for the second.

First: O=C(COc1ccc(Cl)cc1)NC1CCCN(C(=O)COc2ccc(Cl)cc2)C1 (centres unmarked) [Example 27, 2-(4-chlorophenoxy)-N-(1-(2-(4-chlorophenoxy)acetyl)piperidin-3-yl)acetamide]
Second: O=C(COc1ccc(Cl)cc1)NCCC1CCCN(C(=O)COc2ccc(Cl)cc2)C1 (centres unmarked) [Example 28, 2-(4-chlorophenoxy)-N-(2-(1-(2-(4-chlorophenoxy)acetyl)piperidin-3-yl)ethyl)acetamide]
The IC50 of the first is higher: > 1000 nM for the first, < 1000 nM for the second.

First: O=C(COc1ccc(Cl)cc1)NC1CCN(CC(O)COc2ccc(Cl)cc2)CC1 (centres unmarked) [Example 11, 2-(4-chlorophenoxy)-N-(1-(3-(4-chlorophenoxy)-2-hydroxypropyl)piperidin-4-yl)acetamide]
Second: O=C(COc1ccc(Cl)cc1)NCC1CCN(CCCOc2ccc(Cl)cc2)CC1 [Example 49, 2-(4-chlorophenoxy)-N-((1-(3-(4-chlorophenoxy)propyl)piperidin-4-yl)methyl)acetamide]
The IC50 of the first is lower: 32 nM for the first, > 1000 nM for the second.

`O=C(COc1ccc(Cl)cc1)NC1CCN(C(=O)COc2ccc(Cl)cc2)CC1F` (centres unmarked) [Example 30, 2-(4-chlorophenoxy)-N-(1-(2-(4-chlorophenoxy)acetyl)-3-fluoropiperidin-4-yl)acetamide] and `O=C(COc1ccc(Cl)cc1)NC1CCN(CCOc2ccc(Cl)cc2)CC1F` (centres unmarked) [Example 50, 2-(4-chlorophenoxy)-N-(1-(2-(4-chlorophenoxy)ethyl)-3-fluoropiperidin-4-yl)acetamide] are within 1.5-fold of each other in IC50: 110 nM for the first, 93.9 nM for the second.

Compared with `O=C(COc1ccc(Cl)cc1)NC1CCN(CCCOc2ccc(Cl)cc2)C(C(=O)O)C1` (centres unmarked) [Example 59, 4-(2-(4-chlorophenoxy)acetamido)-1-(3-(4-chlorophenoxy)propyl)piperidine-2-carboxylic acid], `CN(C(=O)COc1ccc(Cl)cc1)C1CCN(CCCOc2ccc(Cl)cc2)CC1` [Example 57, 2-(4-chlorophenoxy)-N-(1-(3-(4-chlorophenoxy)propyl)piperidin-4-yl)-N-methylacetamide] is 2.8-fold lower in IC50: 172 nM for the first, 61.2 nM for the second.

`O=C(COc1ccc(Cl)nc1)NCC1CCCN(C(=O)COc2ccc(Cl)cc2)C1` (centres unmarked) [Example 29, N-((1-(2-(4-chlorophenoxy)acetyl)piperidin-3-yl)methyl)-2-((6-chloropyridin-3-yl)oxy)acetamide] was tested, and the IC50 was > 1000 nM.

Reference: patent US11547704B2, “Chemical compounds” (GlaxoSmithKline Intellectual Property Development Limited, priority 2016, dated 2023)
